Source: paper PMC12587545, “Noncytotoxic polymyxin derivatives enhance antibiotic action against multidrug-resistant Gram-negative bacteria” (Antimicrobial Agents and Chemotherapy, 2025)
Where “and” joins values, the source holds several entries; their conditions need not be identical. Equal values may be shown once. Entries after “also recorded” stand apart in the source; their conditions may differ.

How the values were obtained:
A. baumannii = assay: Checkerboard assay (antibiotic potentiation); assay type: cell-based, Acinetobacter baumannii
E. coli = assay: Checkerboard assay (antibiotic potentiation); assay type: cell-based, Escherichia coli; settings: for Interpretation: antibiotic + compound 1; for MICantibiotic + compound: antibiotic MIC with 8 µg/mL (5 µM) compound 1; for MICantibiotic: antibiotic alone; for Potentiation: of antibiotic by 8 µg/mL (5 µM) compound 1
K. pneumoniae = assay: Checkerboard assay (antibiotic potentiation); assay type: cell-based, Klebsiella pneumoniae; settings: for MICantibiotic + compound: antibiotic MIC with 8 µg/mL (5 µM) compound 1; for MICantibiotic: antibiotic alone; for Potentiation: of antibiotic by 8 µg/mL (5 µM) compound 1
E. cloacae = assay: Checkerboard assay (antibiotic potentiation); assay type: cell-based, Enterobacter cloacae; settings: E. cloacae 121887 (colistin-resistant)
[1] = system: MDR Gram-negative bacteria clinical isolates; assay: Checkerboard assay, summary over strains; assay type: cell-based; settings: of all 14 clinical isolates; number (%)
P. aeruginosa 259-96916 = assay: Time-kill kinetics assay
A. baumannii AB027 = assay: Time-kill kinetics assay
Procedure: Bactericidal and bacteriostatic activity correspond to a ≥ 3 log10 and a < 3 log10 decrease in bacterial load after 24 h relative to the starting inoculum, respectively ([39]).
The time- and concentration-dependent killing of the antibiotic/compound combinations was assessed using the time-kill kinetics assay by following a previously described protocol ([27][–][29]). Bacterial culture grown overnight was diluted in phosphate-buffered saline (PBS) to 0.5 McFarland turbidity and was further diluted 1:50 in LB. Bacterial cultures treated with varying concentrations of antibiotic alone, compound alone, or the combination of antibiotic and compound were incubated in a shaking incubator at 250 rpm and at 37°C. At designated time points, 100 µL aliquots were taken from the culture tubes, serially diluted in PBS, and plated on LB agar plates. The bacterial colonies were then counted after incubation of the plates for 18 h at 37°C.

[2] = A. baumannii ATCC 17978, 0% FBS, zoliflodacin + compound 1
[3] = A. baumannii ATCC 17978, [Mg2+] 25 mM, zoliflodacin + compound 1
[4] = A. baumannii ATCC 17978, [Mg2+] 0.4–0.5 mM, zoliflodacin + compound 1
[5] = A. baumannii ATCC 17978, antibiotic + compound 1
[6] = E. coli 94393 (colistin-resistant)
[7] = E. coli 94474 (colistin-resistant)
[8] = K. pneumoniae 113250 (colistin-resistant)
[9] = K. pneumoniae 116381, antibiotic + compound 1
[10] = 0.5 µg/mL zoliflodacin + 8 µg/mL (5 µM) compound 1
[11] = 8 µg/mL zoliflodacin + 8 µg/mL (5 µM) compound 1
[12] = monotherapy at 8 µg/mL, LB, 37°C, up to 24 h
[13] = zoliflodacin + compound 1, both 8 µg/mL, after 24 h

C[C@@H]1CN2c3c(cc4c(N5C(=O)OC[C@@H]5C)noc4c3F)CC3(C(=O)NC(=O)NC3=O)[C@H]2[C@H](C)O1 [Zoliflodacin]
Interpretation (A. baumannii; A. baumannii AB031, antibiotic + compound 1): Synergy (FIC indices of ≤0.5 is synergistic)
MICantibiotic + compound (A. baumannii; A. baumannii AB031, antibiotic MIC with 4 µg/mL (2 µM) compound 1): 4 µg/mL
MICantibiotic (A. baumannii; A. baumannii AB031, antibiotic alone): 128 µg/mL
Potentiation (A. baumannii; A. baumannii AB031, of antibiotic by 4 µg/mL (2 µM) compound 1): 32 fold
Potentiation (A. baumannii; A. baumannii ATCC 17978, 0% FBS, of zoliflodacin by 4 µg/mL compound 1): ≥128-fold
FIC index (A. baumannii; [2]): 0.258
Interpretation (A. baumannii; [2]): Synergy (FIC indices of ≤0.5 is synergistic)
MICantibiotic + compound (A. baumannii; A. baumannii ATCC 17978, 0% FBS, zoliflodacin MIC with 4 µg/mL compound 1): 0.031 µg/mL
MICantibiotic (A. baumannii; A. baumannii ATCC 17978, 0% FBS, zoliflodacin alone): 4 µg/mL
Potentiation (A. baumannii; A. baumannii ATCC 17978, 10% FBS, of zoliflodacin by 4 µg/mL compound 1): 32 fold
Interpretation (A. baumannii; A. baumannii ATCC 17978, 10% FBS, zoliflodacin + compound 1): Synergy (FIC indices of ≤0.5 is synergistic)
MICantibiotic + compound (A. baumannii; A. baumannii ATCC 17978, 10% FBS, zoliflodacin MIC with 4 µg/mL compound 1): 0.5 µg/mL
MICantibiotic (A. baumannii; A. baumannii ATCC 17978, 10% FBS, zoliflodacin alone): 16 µg/mL
Potentiation (A. baumannii; A. baumannii ATCC 17978, 25% FBS, of zoliflodacin by 4 µg/mL compound 1): 8 fold
Interpretation (A. baumannii; A. baumannii ATCC 17978, 25% FBS, zoliflodacin + compound 1): Synergy (FIC indices of ≤0.5 is synergistic)
MICantibiotic + compound (A. baumannii; A. baumannii ATCC 17978, 25% FBS, zoliflodacin MIC with 4 µg/mL compound 1): 2 µg/mL
MICantibiotic (A. baumannii; A. baumannii ATCC 17978, 25% FBS, zoliflodacin alone): 16 µg/mL
Potentiation (A. baumannii; A. baumannii ATCC 17978, 50% FBS, of zoliflodacin by 4 µg/mL compound 1): 2 fold
Interpretation (A. baumannii; A. baumannii ATCC 17978, 50% FBS, zoliflodacin + compound 1): Additive (0.5 < × ≤ 4 is additive)
MICantibiotic + compound (A. baumannii; A. baumannii ATCC 17978, 50% FBS, zoliflodacin MIC with 4 µg/mL compound 1): 32 µg/mL
MICantibiotic (A. baumannii; A. baumannii ATCC 17978, 50% FBS, zoliflodacin alone): 64 µg/mL
Potentiation (A. baumannii; A. baumannii ATCC 17978, [Mg2+] 25 mM, of zoliflodacin by 4 µg/mL compound 1): ≥64-fold
FIC index (A. baumannii; [3]): x < 0.063
Interpretation (A. baumannii; [3]): Synergy (FIC indices of ≤0.5 is synergistic)
MICantibiotic + compound (A. baumannii; A. baumannii ATCC 17978, [Mg2+] 25 mM, zoliflodacin MIC with 4 µg/mL compound 1): 4 µg/mL
MICantibiotic (A. baumannii; A. baumannii ATCC 17978, [Mg2+] 25 mM, zoliflodacin alone): >32 µg/mL
Potentiation (A. baumannii; A. baumannii ATCC 17978, [Mg2+] 0.4–0.5 mM, of zoliflodacin by 4 µg/mL compound 1): ≥128-fold
FIC index (A. baumannii; [4]): 0.258
Interpretation (A. baumannii; [4]): Synergy (FIC indices of ≤0.5 is synergistic)
MICantibiotic + compound (A. baumannii; A. baumannii ATCC 17978, [Mg2+] 0.4–0.5 mM, zoliflodacin MIC with 4 µg/mL compound 1): 0.031 µg/mL
MICantibiotic (A. baumannii; A. baumannii ATCC 17978, [Mg2+] 0.4–0.5 mM, zoliflodacin alone): 4 µg/mL
FIC index (A. baumannii; [5]): 0.258
Interpretation (A. baumannii; [5]): Synergy (FIC indices of ≤0.5 is synergistic)
Interpretation (A. baumannii; A. baumannii ATCC 17978, antibiotic + compound 3): Additive (0.5 < × ≤ 4 is additive)
MICantibiotic + compound (A. baumannii; A. baumannii ATCC 17978, antibiotic MIC with 8 µg/mL (5 µM) compound 3): 2 µg/mL
MICantibiotic (A. baumannii; A. baumannii ATCC 17978, antibiotic alone): 2 µg/mL and 4 µg/mL
Potentiation (A. baumannii; A. baumannii ATCC 17978, of antibiotic by 8 µg/mL (5 µM) compound 3): 1 fold
Interpretation (E. coli; [6]): Synergy (FIC indices of ≤0.5 is synergistic)
MICantibiotic + compound (E. coli; [6]): 2 µg/mL
MICantibiotic (E. coli; [6]): 64 µg/mL
Potentiation (E. coli; [6]): 32 fold
Interpretation (E. coli; [7]): Synergy (FIC indices of ≤0.5 is synergistic)
MICantibiotic + compound (E. coli; [7]): 4 µg/mL
MICantibiotic (E. coli; [7]): 64 µg/mL
Potentiation (E. coli; [7]): 16 fold
Interpretation (K. pneumoniae; K. pneumoniae 113250 (colistin-resistant), antibiotic + compound 1): Synergy (FIC indices of ≤0.5 is synergistic)
MICantibiotic + compound (K. pneumoniae; [8]): 4 µg/mL
MICantibiotic (K. pneumoniae; [8]): 128 µg/mL
Potentiation (K. pneumoniae; [8]): 32 fold
FIC index (K. pneumoniae; [9]): 0.063
Interpretation (K. pneumoniae; [9]): Synergy (FIC indices of ≤0.5 is synergistic)
MICantibiotic + compound (K. pneumoniae; K. pneumoniae 116381): 0.25 µg/mL
MICantibiotic (K. pneumoniae; K. pneumoniae 116381): 256 µg/mL
Potentiation (K. pneumoniae; K. pneumoniae 116381): ≥512-fold
Interpretation (E. cloacae; antibiotic + compound 1): Synergy (FIC indices of ≤0.5 is synergistic)
MICantibiotic + compound (E. cloacae; antibiotic MIC with 8 µg/mL (5 µM) compound 1): 4 µg/mL
MICantibiotic (E. cloacae; antibiotic alone): 32 µg/mL
Potentiation (E. cloacae; of antibiotic by 8 µg/mL (5 µM) compound 1): 8 fold
clinical isolates in which the antibiotic was synergized by compound 1 [1]: 12 (86%) strains
time-kill outcome (P. aeruginosa 259-96916; [10]): bacteriostatic effect
time-kill outcome (P. aeruginosa 259-96916; [11]): complete sterilization was achieved after 24 h
time-kill outcome (P. aeruginosa 259-96916; [12]): growth curve similar to that of untreated bacteria
decrease in bacterial load from the starting inoculum and from the most active monotherapy (P. aeruginosa 259-96916; [13]): ≥ 2 log10
time-kill outcome (A. baumannii AB027; [10]): appeared to eradicate the bacteria at 8 h; also recorded: slight regrowth after 24 h
time-kill outcome (A. baumannii AB027; [11]): appeared to eradicate the bacteria at 8 h
time-kill outcome (A. baumannii AB027; monotherapy at 0.5 µg/mL): growth curves similar to that of untreated bacteria
time-kill outcome (A. baumannii AB027; [12]): initially decreased bacterial loads, regrowth occurred after 8 h
decrease in bacterial load from the starting inoculum and from the most active monotherapy (A. baumannii AB027; [13]): ≥ 2 log10
